From patent publication US20110040086A1, “Novel Beta-Lactam Antibiotics, Methods for Their Production, and Their Use” (DRITTE PATENTPORTFOLIO BETEILIGUNGSGESELLSCHAFT MB, priority 2007, published 2011)

Tests used:
S. aureus ATCC 6538 = assay: agar diffusion test (Test System II, multi-resistant germs); format: cell-based, Staphylococcus aureus
Summary of the method: (§1)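 A McFarland 0.5 bacterial suspension in physiological saline is spread vertically, horizontally and transversely over Müller-Hinton agar II. Three sensi-discs bearing 10, 50 and 100 μg of test compound go onto each plate, which then incubates at 37 °C for 18-20 h before zone diameters are recorded.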

S. aureus 38418 = assay: as above; format: cell-based, Staphylococcus aureus
Summary of the method: as §1

S. aureus 39105 = assay: as above; format: cell-based, Staphylococcus aureus; design: key: r = resistant (no detectable zone of inhibition)
Summary of the method: as §1

S. aureus 36881 = assay: as above; format: cell-based, Staphylococcus aureus; design: key: r = resistant (no detectable zone of inhibition)
Summary of the method: as §1

[1] = test system: S. aureus North Germany strain; assay: as above; format: cell-based, Staphylococcus aureus; design: key: r = resistant (no detectable zone of inhibition)
Summary of the method: as §1

S. aureus 34289 = assay: as above; format: cell-based, Staphylococcus aureus; design: key: r = resistant (no detectable zone of inhibition)
Summary of the method: as §1

S. aureus 526 = assay: as above; format: cell-based, Staphylococcus aureus; design: key: r = resistant (no detectable zone of inhibition)
Summary of the method: as §1

S. aureus 520 = assay: as above; format: cell-based, Staphylococcus aureus; design: key: r = resistant (no detectable zone of inhibition)
Summary of the method: as §1

S. aureus 33490 = assay: as above; format: cell-based, Staphylococcus aureus; design: key: r = resistant (no detectable zone of inhibition)
Summary of the method: as §1

E. faecalis 945 = assay: as above; format: cell-based, Enterococcus faecalis; design: key: r = resistant (no detectable zone of inhibition)
Summary of the method: as §1

[2] = test system: Staphylococcus aureus ATCC 6538; assay: mouse infected with Staphylococcus aureus infection model (survival); format: in vivo, BALB/c mice
Experimental: Method for Effectiveness In Vivo with the Mouse Infected with Staphylococcus aureus Model
On Day 0, at least 3 BALB/c mice per test substance (Table 8) or controls are pretreated with cyclophosphamide (250 mg/kg) in 250 μl PBS inta peritoneal (i.p.).
On Day 2, the animals again received 100 mg/kg i.p.
On Day 2, a colony of the test germ is transferred from a growing agar plate (Müller-Hinton-Agar, Beckton Dickinson) into a flask with 10 ml CASO broth (CASO-B., Soyabean peptone-Casein peptone broth, SIFIN, 30 g/l) and is cultivated overnight at 37° C. and a shaking frequency of 250 rpm.
On Day 3, the pre-culture (Vk) is diluted 1:50 with CASO-B and further cultivated ca. 2 hours until an extinction in the medium of 0.6 at a wavelength of 550 nm is reached. Then, it is grown 1× with PBS at room temperature and set again to an extinction of 0.6.
At least 3 animals for a test substance or controls are infected with 10 μl/g body weight grown germs of a bacteria suspension with the extinction 0.6 (ca. 10^10-10^12 CFU, Colony forming units) i.p.
After 30 minutes, antibiotic solution is injected into the mice in a volume of 200 μl PBS with 3% DMSO i.p. 6 hours later, the second antibiotic injection is performed at the same concentration. […]

[3] = test system: Enterococcus faecalis 769; assay: agar diffusion test (Test System II, multi-resistant germs); format: cell-based; design: key: r = resistant (no detectable zone of inhibition)
Summary of the method: as §1

B. subtilis AWD 166 = assay: agar diffusion test (antimicrobial effect); format: cell-based, Bacillus subtilis
Summary of the method: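 Nutrient agar seeded with B. subtilis AWD 166 to give dense non-confluent colonies; compounds in methanol or distilled water applied to discs at 10, 50, 100 μg. After 20 h at 37 °C, inhibition zone diameter measured in mm.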

[4] = test system: Escherichia coli SBUG 1135; assay: agar diffusion test (Test System 1, antimicrobial effect); format: cell-based
Summary of the method: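 E. coli SBUG 1135 grown 17 h at 37° C, 180 rpm, diluted 1:100 and seeded in nutrient agar at ~10^6 cells. Discs loaded with 10, 50 or 100 μg compound (methanol or water); inhibition-zone diameter (mm) read after 20 h at 37° C.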

Compound: 3-chlorine-7-[2-(2-methoxycarbonyl-3,6-dioxocyclohexa-1,4-dienylamino)-2-phenyl-acetylamino]-8-oxo-1-thia-5-azabicyclo[4.2.0]oct-3-en-4-carboxylic acid [1k]
- Diameter of zone of inhibition (S. aureus ATCC 6538; Quantity n 0.029): 28 mm
- Diameter of zone of inhibition (S. aureus ATCC 6538; Quantity n 0.14): 36 mm
- Diameter of zone of inhibition (S. aureus ATCC 6538; Quantity n 0.29): 38 mm
- Diameter of zone of inhibition (S. aureus 38418; Quantity n [mol] 0.029): 22 mm
- Diameter of zone of inhibition (S. aureus 38418; Quantity n [mol] 0.14): 30 mm
- Diameter of zone of inhibition (S. aureus 38418; Quantity n [mol] 0.29): 34 mm
- Diameter of zone of inhibition (S. aureus 39105; Quantity n 0.029): 8 mm
- Diameter of zone of inhibition (S. aureus 39105; Quantity n 0.14): 20 mm
- Diameter of zone of inhibition (S. aureus 39105; Quantity n 0.29): 22 mm
- Diameter of zone of inhibition (S. aureus 36881; Quantity n 0.029): r
- Diameter of zone of inhibition (S. aureus 36881; Quantity n 0.14): 14 mm
- Diameter of zone of inhibition (S. aureus 36881; Quantity n 0.29): 18 mm
- Diameter of zone of inhibition ([1]; Quantity n 0.029): r
- Diameter of zone of inhibition ([1]; Quantity n 0.14): 14 mm
- Diameter of zone of inhibition ([1]; Quantity n 0.29): 18 mm
- Diameter of zone of inhibition (S. aureus 34289; Quantity n [mol] 0.029): r
- Diameter of zone of inhibition (S. aureus 34289; Quantity n [mol] 0.14): r
- Diameter of zone of inhibition (S. aureus 34289; Quantity n [mol] 0.29): r
- Diameter of zone of inhibition (S. aureus 526; Quantity n 0.029): r
- Diameter of zone of inhibition (S. aureus 526; Quantity n 0.14): r
- Diameter of zone of inhibition (S. aureus 526; Quantity n 0.29): r
- Diameter of zone of inhibition (S. aureus 520; Quantity n [mol] 0.029): r
- Diameter of zone of inhibition (S. aureus 520; Quantity n [mol] 0.14): r
- Diameter of zone of inhibition (S. aureus 520; Quantity n [mol] 0.29): 10 mm
- Diameter of zone of inhibition (S. aureus 33490; Quantity n [μmol] 0.029): 16 mm
- Diameter of zone of inhibition (S. aureus 33490; Quantity n [μmol] 0.14): 24 mm
- Diameter of zone of inhibition (S. aureus 33490; Quantity n [μmol] 0.29): 26 mm
- Diameter of zone of inhibition (E. faecalis 945; Quantity n 0.029): r
- Diameter of zone of inhibition (E. faecalis 945; Quantity n 0.14): r
- Diameter of zone of inhibition (E. faecalis 945; Quantity n 0.29): r
- Survival/tested mice n/n ([2]; 2 × 1.5 mg (75 mg/kg) i.p.): 3/3
- Diameter of zone of inhibition ([3]; Quantity n 0.029): r
- Diameter of zone of inhibition ([3]; Quantity n 0.14): 8 mm
- Diameter of zone of inhibition ([3]; Quantity n 0.29): 14 mm
- Diameter of zone of inhibition (B. subtilis AWD 166; Quantity n 0.029): 30 mm
- Diameter of zone of inhibition (B. subtilis AWD 166; Quantity n 0.14): 36 mm
- Diameter of zone of inhibition (B. subtilis AWD 166; Quantity n 0.29): 38 mm
- Diameter of zone of inhibition ([4]; Quantity n 0.029): 18 mm
- Diameter of zone of inhibition ([4]; Quantity n 0.14): 24 mm
- Diameter of zone of inhibition ([4]; Quantity n 0.29): 28 mm

Compound: CCOC(=O)C1=C(NC(C(=O)NC2C(=O)N3C(C(=O)O)=C(Cl)CSC23)c2ccccc2)C(=O)C=CC1=O (centres unmarked) [1l]
- Diameter of zone of inhibition (S. aureus ATCC 6538; Quantity n 0.019): 24 mm
- Diameter of zone of inhibition (S. aureus ATCC 6538; Quantity n 0.09): 30 mm
- Diameter of zone of inhibition (S. aureus ATCC 6538; Quantity n 0.19): 34 mm
- Diameter of zone of inhibition (S. aureus 38418; Quantity n [mol] 0.019): 18 mm
- Diameter of zone of inhibition (S. aureus 38418; Quantity n [mol] 0.09): 28 mm
- Diameter of zone of inhibition (S. aureus 38418; Quantity n [mol] 0.19): 30 mm
- Diameter of zone of inhibition (S. aureus 39105; Quantity n 0.019): r
- Diameter of zone of inhibition (S. aureus 39105; Quantity n 0.09): 18 mm
- Diameter of zone of inhibition (S. aureus 39105; Quantity n 0.19): 22 mm
- Diameter of zone of inhibition (S. aureus 36881; Quantity n 0.019): r
- Diameter of zone of inhibition (S. aureus 36881; Quantity n 0.09): 8 mm
- Diameter of zone of inhibition (S. aureus 36881; Quantity n 0.19): 18 mm
- Diameter of zone of inhibition ([1]; Quantity n 0.019): r
- Diameter of zone of inhibition ([1]; Quantity n 0.09): 10 mm
- Diameter of zone of inhibition ([1]; Quantity n 0.19): 16 mm
- Diameter of zone of inhibition (S. aureus 34289; Quantity n [mol] 0.019): r
- Diameter of zone of inhibition (S. aureus 34289; Quantity n [mol] 0.09): r
- Diameter of zone of inhibition (S. aureus 34289; Quantity n [mol] 0.19): r
- Diameter of zone of inhibition (S. aureus 526; Quantity n 0.019): r
- Diameter of zone of inhibition (S. aureus 526; Quantity n 0.09): r
- Diameter of zone of inhibition (S. aureus 526; Quantity n 0.19): r
- Diameter of zone of inhibition (S. aureus 520; Quantity n [mol] 0.019): r
- Diameter of zone of inhibition (S. aureus 520; Quantity n [mol] 0.09): r
- Diameter of zone of inhibition (S. aureus 520; Quantity n [mol] 0.19): 10 mm
- Diameter of zone of inhibition (S. aureus 33490; Quantity n [μmol] 0.019): 14 mm
- Diameter of zone of inhibition (S. aureus 33490; Quantity n [μmol] 0.09): 20 mm
- Diameter of zone of inhibition (S. aureus 33490; Quantity n [μmol] 0.19): 24 mm
- Diameter of zone of inhibition (E. faecalis 945; Quantity n 0.019): r
- Diameter of zone of inhibition (E. faecalis 945; Quantity n 0.09): r
- Diameter of zone of inhibition (E. faecalis 945; Quantity n 0.19): r
- Survival/tested mice n/n ([2]; 2 × 1.0 mg (50 mg/kg) i.p.): 3/3
- Diameter of zone of inhibition ([3]; Quantity n 0.019): r
- Diameter of zone of inhibition ([3]; Quantity n 0.09): r
- Diameter of zone of inhibition ([3]; Quantity n 0.19): r
- Diameter of zone of inhibition (B. subtilis AWD 166; Quantity n 0.019): 30 mm
- Diameter of zone of inhibition (B. subtilis AWD 166; Quantity n 0.09): 34 mm
- Diameter of zone of inhibition (B. subtilis AWD 166; Quantity n 0.19): 38 mm
- Diameter of zone of inhibition ([4]; Quantity n 0.019): 18 mm
- Diameter of zone of inhibition ([4]; Quantity n 0.09): 24 mm
- Diameter of zone of inhibition ([4]; Quantity n 0.19): 28 mm
